Experiments:
TNF-α = test: Cytokine assay in the blood: TNF-α; format: in vivo, mouse
Method: FIG. 3A-C. Comparison the levels of TNF-α in blood (a), organs (b) and the blood levels of IL-12 and IFN-γ (c) after injection of the lipoplexes and safeplexes. The charge ratio of DOTA to DNA (+/−) (a) was varied from 0 to 12 and (b) and (c) was fixed at 6 to 1. The levels of cytokines were detected 2 h (a,b) or 6 h (c) after injection of the lipoplexes and safeplexes containing 25 μg pDNA. P<0.001 (three mice in each group).
FIG. 4A-B. Effect of (A) DEX dose and (B) time course on suppressing TNF-α. Mice were (three in each group) injected with the lipoplexes or safeplexes with (A) a varied ratio of DEX to DOTAP and (B) with a ratio of DEX to DOTAP of 1/10 (w/w). (a, b) The charge ratio of DOTAP to DNA was fixed at 6 to 1. P>0.5, P<0.001
FIG. 5. Inhibition of TNF-α production by other suppressors. The levels of TNF-α in the blood were analyzed 2 h after the injection of lipoplexes and safeplexes with a charge ratio of DNA to DOTAP of 1/6 (mol/mol). P<0.001 (n=3).
At indicated time points (2 h for TNF-α, 6 h for IL-12 and IFN-γ) following the injection of a tested sample containing 25 μg of pDNA, the blood and organs (the liver, lung and spleen) were collected. The blood was allowed to clot on ice for at least 4 h and then centrifuged at 3000 g for 20 min at 4° C., and serum was collected for the cytokine assay. For the organ assay, […] of each organ was added with 0.5 ml PBS buffer and homogenized for 20 s at the highest speed. The homogenates were frozen (in liquid nitrogen) and thawed (in 37° C. water bath) three times and then centrifuged at 14,000 g for 5 min. The supernatants were collected for the cytokine assay. The concentrations of cytokines (TNF-α, IL-12 and IFN-γ) were determined with mouse cytokine immunoassay kits (R&D System, Minneapolis, Minn.). Data were analyzed by the paired Student's t test using Excel. Data were considered statistically significant if P<0.01.

immune cells = settings: sublethally irradiated mice, intraperitoneal injection; cited from earlier work

Which “effect on TNF-α production in blood” value (TNF-α; carried by safeplexes, inhibitor/DOTAP 1/6 mol/mol, 2 h after injection) does the source give for CN1C(=O)[C@]23CC4=CC=C[C@H](O)[C@H]4N2C(=O)[C@@]1(CO)SS3 [gliotoxin] here?
The value was “showed the inhibitory effect”.

And the “recovery of immune cells” value (immune cells)?
Its value is “significant delay”.

For COc1ccc2c(c1)c(CC(=O)O)c(C)n2C(=O)c1ccc(Cl)cc1 [indomethacin], which “effect on TNF-α production in blood” value (TNF-α; mouse, in vivo) is on record?
Its value is “showed the inhibitory effect”.

Which “effect on TNF-α production in blood” value (TNF-α; mouse, in vivo) does the source give for C[C@]12C=CC(=O)C=C1CC[C@@H]1[C@@H]2C(=O)C[C@@]2(C)[C@H]1CC[C@]2(O)C(=O)CO [prednisone] here?
The value was “showed the inhibitory effect”.

With COc1ccc2cc1Oc1ccc(cc1)C[C@H]1c3cc(c(OC)cc3CCN1C)Oc1c(OC)c(OC)cc3c1[C@H](C2)N(C)CC3 [tetrandrine] as the molecule, how does the “effect on TNF-α production in blood” value (TNF-α; mouse, in vivo) read?
Its value is “showed the inhibitory effect”.

Which “inhibition of TNF-α” value (TNF-α; 32 μg free DEX intravenously, immediately followed by DNA/DOTAP complexes) does the source give for Dexamethasone-Water Soluble [free DEX] here?
Its value is “less than 45%”.

Reference: patent US20060062841A1, “Liposomal vectors” (priority 2004, published 2006)
